From ChEMBL document CHEMBL5104127, “Design and preparation of N-linked hydroxypyridine-based APJ agonists” (Bioorg Med Chem Lett, 2022)

Columns and labels:
Apelin receptor = target: T1, Apelin receptor (Homo sapiens, UniProt P35414); assay: Agonist activity at human APJ receptor expressed in HEK293 cells assessed as compound stimulated inhibition of forskolin stimulated cAMP production incubated for 30 mins and measured by fluorescence based assay; assay type: functional, cell-based
T1 sequence (P35414 whole entry): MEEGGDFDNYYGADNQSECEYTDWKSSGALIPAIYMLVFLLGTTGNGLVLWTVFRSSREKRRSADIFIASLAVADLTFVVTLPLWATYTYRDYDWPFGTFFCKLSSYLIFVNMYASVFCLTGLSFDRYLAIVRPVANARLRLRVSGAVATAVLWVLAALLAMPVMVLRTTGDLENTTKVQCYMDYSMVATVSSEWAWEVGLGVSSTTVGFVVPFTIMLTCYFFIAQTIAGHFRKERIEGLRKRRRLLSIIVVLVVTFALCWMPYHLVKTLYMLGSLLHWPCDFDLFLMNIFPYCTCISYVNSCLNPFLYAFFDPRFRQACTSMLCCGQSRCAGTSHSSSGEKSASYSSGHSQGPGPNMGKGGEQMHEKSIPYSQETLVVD

[1] = Metabolic stability in rat liver microsomes incubated for 10 mins and assessed as compound remaining; assay type: ADME, Microsome; conditions: read-out: Stability
[2] = Metabolic stability in human liver microsomes incubated for 10 mins and assessed as compound remaining; assay type: ADME, Microsome; conditions: read-out: Stability
[3] = Cmax in rat at 1 mg/kg, po; assay type: ADME, organism-based; set-up: dose 1 mg/kg, route po; conditions: in vivo
[4] = AUC in rat at 1 mg/kg, po; assay type: ADME, organism-based; set-up: dose 1 mg/kg, route po; conditions: in vivo

Row | SMILES | EC50 (Apelin receptor) | remaining at 10 min [1] | remaining at 10 min [2] | Cmax [3] | AUC [4]
1 | CCCCc1nc(O)c(C(=O)N2CC[C@H](c3ccccc3)C2)c(O)c1N1CCc2ccccc21 | 21 nM | – | – | – | –
2 | CCCCc1nc(O)c(C(=O)N2CCC(c3ncc(F)cc3F)C2)c(O)c1N(CC)c1ccccc1 (stereo unspecified) | 0.24 nM | – | – | – | –
3 | CCN(c1ccccc1)c1c(-c2cccc(C)c2)nc(O)c(C(=O)N2CCC(c3ncc(F)cc3F)C2)c1O (stereo unspecified) | 0.1 nM | 7% | 57% | – | –
4 | CCCCc1nc(O)c(C(=O)N2CC[C@H](c3ccccc3)C2)c(O)c1N(C)c1ccc(OC)cc1 | 62 nM | – | – | – | –
5 | CCN(c1ccccc1)c1c(CC2CC2)nc(O)c(C(=O)N2CCC(c3ncc(F)cc3F)C2)c1O (stereo unspecified) | 13 nM | – | – | – | –
6 | CCN(c1ccccc1)c1c(-c2ccn(C)n2)nc(O)c(C(=O)N2CCC(c3ncc(F)cc3F)C2)c1O (stereo unspecified) | 0.3 nM | 82% | 87% | 5.2 µM | 4.8 µM·h
7 | CCCCc1nc(O)c(C(=O)N2CCC(c3ccccc3F)C2)c(O)c1N(CC)c1ccccc1 (stereo unspecified) | 8.4 nM | – | – | – | –
8 | CCCCc1nc(O)c(C(=O)N2CCC(c3ccc(Cl)cn3)C2)c(O)c1N(CC)c1ccccc1 (stereo unspecified) | 0.28 nM | 26% | 62% | – | –
9 | CCCCc1nc(O)c(C(=O)N2CC[C@H](c3ccccc3)C2)c(O)c1N(CC)c1ccccc1 | 13 nM | 7% | 27% | – | –
10 | CCCCc1nc(O)c(C(=O)N2CC[C@H](c3ccccc3)C2)c(O)c1N(c1ccccc1)C(C)C | 35 nM | – | – | – | –

The remaining lines, values ahead:

Row | EC50 (Apelin receptor) | remaining at 10 min [1] | remaining at 10 min [2] | Cmax [3] | AUC [4] | SMILES
11 | > 75 nM | – | – | – | – | CCCCc1nc(O)c(C(=O)N2CC[C@H](c3ccccc3)C2)c(O)c1N(C)c1ccccc1OC
12 | 0.24 nM | 12% | 53% | – | – | CCCCc1nc(O)c(C(=O)N2CCC(c3ncc(Cl)cc3F)C2)c(O)c1N(CC)c1ccccc1 (stereo unspecified)
13 | > 75 nM | – | – | – | – | CCCCc1nc(O)c(C(=O)N2CC[C@H](c3ccccc3)C2)c(O)c1N(C)c1cccc(OC)c1
14 | 12 nM | 17% | 56% | – | – | CCCCc1nc(O)c(C(=O)N2CC[C@@H](c3ccccc3)C2)c(O)c1N(CC)c1ccccc1
15 | 16 nM | – | – | – | – | CCCCc1nc(O)c(C(=O)N2CCN(Cc3cccc(Cl)c3Cl)CC2)c(O)c1N(CC)c1ccccc1
16 | > 150 nM | – | – | – | – | CCCCc1nc(O)c(C(=O)N2CC[C@H](c3ccccc3)C2)c(O)c1N1CCCc2ccccc21
17 | 38 nM | – | – | – | – | CCCCc1nc(O)c(C(=O)N2CC[C@H](c3ccccc3)C2)c(O)c1N(C)c1ccccc1
